Test results published in ChEMBL document CHEMBL1201862, “PubChem BioAssay data set” (2004).
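Interpolation was linear, between the two tested concentrations surrounding the appropriate level; five concentrations were tested over 48 hours in 96-well plates. GI50: concentration for 50% inhibition of growth.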 Active and inactive are the calls of the source. Cut-off read from the data, not from the text of the source: active = GI50 up to about 1.1 µM and inactive = higher.

How the values were obtained:
Assay in all cases: NCI anticancer screen, dose series, 48 h
OVCAR-5 = system: OVCAR-5
TK-10 = system: TK-10
OVCAR-4 = system: OVCAR-4
CCRF-CEM = system: CCRF-CEM
M14 = system: M14
HOP-62 = system: HOP-62
UACC-62 = system: UACC-62
HCT-15 = system: HCT-15
MDA-N = system: MDA-N
LOX IMVI = system: LOX IMVI
T47D = system: T47D
HCT-116 = system: HCT-116
SK-MEL-28 = system: SK-MEL-28
SK-MEL-2 = system: SK-MEL-2
SF-539 = system: SF-539
NCI/ADR-RES = system: NCI/ADR-RES
UO-31 = system: UO-31
Malme-3M = system: Malme-3M
K562 = system: K562
A498 = system: A498

SMILES | GI50 (OVCAR-5) | GI50 (TK-10) | GI50 (OVCAR-4) | GI50 (CCRF-CEM) | GI50 (M14) | GI50 (HOP-62) | GI50 (UACC-62) | GI50 (HCT-15) | GI50 (MDA-N) | GI50 (LOX IMVI) | GI50 (T47D) | GI50 (HCT-116) | GI50 (SK-MEL-28) | GI50 (SK-MEL-2) | GI50 (SF-539) | GI50 (NCI/ADR-RES) | GI50 (UO-31) | GI50 (Malme-3M) | GI50 (K562) | GI50 (A498)
CC(=O)O[C@H]1CC[C@@]2(C)C(=CC[C@@H]3[C@@H]2CC[C@]2(C)NC(=O)/C(=C\c4ccccc4)C[C@@H]32)C1 | 17.7 µM (inactive) | 29.9 µM (inactive) | 16.5 µM (inactive) | 16.5 µM (inactive) | 16.1 µM (inactive) | 13.2 µM (inactive) | 14 µM (inactive) | 18.6 µM | 19.6 µM (inactive) | 17 µM (inactive) | 13.5 µM (inactive) | 15.6 µM (inactive) | 16.8 µM (inactive) | 20.4 µM (inactive) | 16.1 µM (inactive) | 24.5 µM (inactive) | 15.7 µM (inactive) | 18 µM (inactive) | > 100 µM (inactive) | 13.8 µM (inactive)
CN1C(=O)N(c2ccccc2)C2(CCN(CC3COc4ccccc4O3)CC2)C1=O (stereo not given) | > 100 µM (inactive) | > 100 µM (inactive) | > 100 µM (inactive) | > 100 µM (inactive) | > 100 µM (inactive) | > 100 µM (inactive) | > 100 µM (inactive) | > 100 µM | > 100 µM (inactive) | > 100 µM (inactive) | > 100 µM (inactive) | 96.8 µM (inactive) | > 100 µM (inactive) | > 100 µM (inactive) | > 100 µM (inactive) | > 100 µM (inactive) | > 100 µM (inactive) | > 100 µM (inactive) | 99.3 µM (inactive) | > 100 µM (inactive)
Cc1ccc(F)c2[nH]c(-c3ccccc3)cc(=O)c12 | 9.1 µM (inactive) | 14.6 µM (inactive) | > 70.5 µM (inactive) | 4.48 µM (inactive) | 3.37 µM (inactive) | 5.9 µM (inactive) | 3.84 µM (inactive) | 1.64 µM | 0.897 µM (active) | 4.68 µM (inactive) | 11.3 µM (inactive) | 4.73 µM (inactive) | 3.11 µM (inactive) | 6.93 µM (inactive) | 4.34 µM (inactive) | 3.82 µM (inactive) | 9.23 µM (inactive) | 17.9 µM (inactive) | 2.23 µM (inactive) | 39.4 µM (inactive)
COc1cc2c(c(OC)c1OC)C(=O)[C@H](Br)[C@H]2NC(=O)NCCCl | > 100 µM (inactive) | > 100 µM (inactive) | 71 µM (inactive) | 23.6 µM (inactive) | 86.1 µM (inactive) | > 100 µM (inactive) | 73.3 µM (inactive) | 62.5 µM | 35.2 µM (inactive) | 47.1 µM (inactive) | > 100 µM (inactive) | 82.6 µM (inactive) | > 100 µM (inactive) | > 100 µM (inactive) | > 100 µM (inactive) | > 100 µM (inactive) | > 100 µM (inactive) | > 100 µM (inactive) | 58.2 µM (inactive) | > 100 µM (inactive)
CCOC(=O)N1N(c2ccccc2)C(=O)C1(c1ccccc1)c1ccccc1 | > 100 µM (inactive) | > 100 µM (inactive) | > 100 µM (inactive) | 66.5 µM (inactive) | > 100 µM (inactive) | 14.9 µM (inactive) | > 100 µM (inactive) | > 100 µM | > 100 µM (inactive) | 70.6 µM (inactive) | 18.9 µM (inactive) | 17.1 µM (inactive) | > 100 µM (inactive) | 20.4 µM (inactive) | > 100 µM (inactive) | > 100 µM (inactive) | 51.6 µM (inactive) | 97.7 µM (inactive) | 34.8 µM (inactive) | > 100 µM (inactive)
Cc1cn(C2CC(O)C(CO)O2)c(=O)[nH]c1=O (stereo not given) | 4060 µM (inactive) | > 5000 µM (inactive) | > 3890 µM (inactive) | 54.7 µM (inactive) | 1850 µM (inactive) | 1380 µM (inactive) | 843 µM (inactive) | 3370 µM | 3780 µM (inactive) | 1310 µM (inactive) | > 4080 µM (inactive) | 1930 µM (inactive) | 1360 µM (inactive) | 3880 µM (inactive) | 3670 µM (inactive) | 2260 µM (inactive) | 3670 µM (inactive) | 2410 µM (inactive) | 1540 µM (inactive) | > 4670 µM (inactive)
CCCCCCCCCCCCCC(=O)OC(/C=C/C(C)C)C(O)C(O)C(OC)C(=O)NC1CCCCN(C)C1=O (stereo not given) | 4.36 µM (inactive) | 7.05 µM (inactive) | 6.12 µM (inactive) | 3.95 µM (inactive) | 1.56 µM (inactive) | 3.15 µM (inactive) | 3.21 µM (inactive) | 6 µM | > 10 µM (inactive) | 7.23 µM (inactive) | > 10 µM (inactive) | 0.927 µM (active) | 3.61 µM (inactive) | 4.2 µM (inactive) | 3.62 µM (inactive) | > 10 µM (inactive) | 1.34 µM (inactive) | 2.11 µM (inactive) | 2.59 µM (inactive) | 4.67 µM (inactive)
